Measurements: ChEMBL document CHEMBL2434848, “Synthesis and biological evaluation of novel alkyl amide functionalized trifluoromethyl substituted pyrazolo[3,4-b]pyridine derivatives as potential anticancer agents” (Bioorg Med Chem Lett, 2013)

Assays:
Format in all cases: functional, cell-based
HeLa = experiment: Cytotoxicity against human HeLa cells after 24 hrs by MTT assay
DU-145 = experiment: Cytotoxicity against human DU145 cells after 24 hrs by MTT assay
MCF7 = experiment: Cytotoxicity against human MCF7 cells after 24 hrs by MTT assay
A549 = experiment: Cytotoxicity against human A549 cells after 24 hrs by MTT assay
[1] = Homo sapiens, HeLa, 24 h, read-out: IC50
[2] = Homo sapiens, DU-145, 24 h, read-out: IC50
[3] = Homo sapiens, MCF7, 24 h, read-out: IC50
[4] = Homo sapiens, A549, 24 h, read-out: IC50

Row | Compound | IC50 (HeLa; [1]) [µM] | IC50 (DU-145; [2]) [µM] | IC50 (MCF7; [3]) [µM] | IC50 (A549; [4]) [µM] | IC50 (HeLa; hela) | IC50 (DU-145; du-145) | IC50 (MCF7; mcf7) | IC50 (A549; a549)
1 | Nc1nn(CC(=O)N2CCOCC2)c2nc(-c3ccccc3)cc(C(F)(F)F)c12 | 6.6 | 5.1 | 5.9 | 5.4 | – | – | – | –
2 | Nc1nn(CC(=O)NC2CC2)c2nc(-c3ccccc3)cc(C(F)(F)F)c12 | – | – | – | – | Not Active | Not Active | Not Active | Not Active
3 | Nc1nn(CC(=O)N2CCCC2)c2nc(-c3ccccc3)cc(C(F)(F)F)c12 | 16.1 | 12.2 | 15.9 | 18.7 | – | – | – | –
4 | NCCNC(=O)Cn1nc(N)c2c(C(F)(F)F)cc(-c3ccccc3)nc21 | 44.5 | 38.9 | 42.9 | 50.2 | – | – | – | –
5 | Nc1nn(CC(=O)NCCO)c2nc(-c3ccccc3)cc(C(F)(F)F)c12 | 69.5 | 96.3 | 78.2 | 128 | – | – | – | –
6 | CC(NC(=O)Cn1nc(N)c2c(C(F)(F)F)cc(-c3ccccc3)nc21)C(=O)O (stereo not given) | 20.1 | 22.4 | 19.9 | 25.6 | – | – | – | –
7 | CNC(=O)Cn1nc(N)c2c(C(F)(F)F)cc(-c3ccccc3)nc21 | 12.2 | 14.4 | 11.8 | 15.3 | – | – | – | –
8 | Nc1nn(CC(=O)NC(Cc2ccccc2)C(=O)O)c2nc(-c3ccccc3)cc(C(F)(F)F)c12 (stereo not given) | 31.3 | 32.3 | 42.1 | 30.1 | – | – | – | –
9 | Nc1nn(CC(=O)NCC(=O)O)c2nc(-c3ccccc3)cc(C(F)(F)F)c12 | 19.1 | 18.8 | 21.2 | 19.9 | – | – | – | –
10 | NNC(=O)Cn1nc(N)c2c(C(F)(F)F)cc(-c3ccccc3)nc21 | 48.4 | 52.4 | 35.4 | 53.6 | – | – | – | –
11 | Nc1nn(CC(=O)N2CCN(CCO)CC2)c2nc(-c3ccccc3)cc(C(F)(F)F)c12 | 2.9 | 3.2 | 15.6 | 14.9 | – | – | – | –
12 | CCNC(=O)Cn1nc(N)c2c(C(F)(F)F)cc(-c3ccccc3)nc21 | 20.2 | 17.9 | 21.3 | 18.8 | – | – | – | –
13 | Nc1nn(CC(=O)NC2CCCCC2)c2nc(-c3ccccc3)cc(C(F)(F)F)c12 | 3.9 | 3.1 | 5.2 | 2.3 | – | – | – | –
14 | CCCNC(=O)Cn1nc(N)c2c(C(F)(F)F)cc(-c3ccccc3)nc21 | 15.9 | 15.5 | 14.9 | 16.5 | – | – | – | –
15 | O=c1[nH]cc(F)c(=O)[nH]1 [FLUOROURACIL] | 1.1 | 1.3 | 1.2 | 1.1 | – | – | – | –
16 | CN1CCN(C(=O)Cn2nc(N)c3c(C(F)(F)F)cc(-c4ccccc4)nc32)CC1 | 17.7 | 18.1 | 16.6 | 18.4 | – | – | – | –
17 | Nc1nn(CC(=O)NCc2ccccc2)c2nc(-c3ccccc3)cc(C(F)(F)F)c12 | 17.1 | 15.6 | 16.3 | 17.3 | – | – | – | –
18 | Nc1nn(CC(=O)N2CCCCC2)c2nc(-c3ccccc3)cc(C(F)(F)F)c12 | 2.9 | 3.2 | 4.1 | 1.2 | – | – | – | –
19 | Nc1nn(CC(=O)N2CCN(c3ccccc3)CC2)c2nc(-c3ccccc3)cc(C(F)(F)F)c12 | 19.8 | 18.9 | 19.7 | 20.7 | – | – | – | –
20 | Nc1nn(CC(=O)NCc2ccco2)c2nc(-c3ccccc3)cc(C(F)(F)F)c12 | 7.1 | 5.6 | 5 | 7.7 | – | – | – | –
